In one test the test system is Chymotrypsin. Nature of the test: Chymotrypsin activity assay (BTEE). Type of test: biochemical. The following applies: Figure 2C. The protocol:
(§1) and the product's absorbance at […] was dynamically and real-time monitored using a microplate […]
During the chymotrypsin activity assay, DPMD was incorporated into chymotrypsin. The final concentration of chymotrypsin was set at 10 μg/mL, and the final concentration of DPMD was 5 mg/mL. In the corresponding control group, an equal volume of the buffer solution prepared by the kit was added. Subsequently, the enzyme-peptide mixture was added to the reaction system containing the substrate N-Benzoyl-L-Tyrosine Ethyl Ester (BTEE) at a ratio of 1:100 (where the proportion of the enzyme-peptide mixture solution was 1) for the detection of enzyme activity. The reaction was carried out at 25 ℃, and the product's absorbance at 256 nm was dynamically and real-time monitored using a microplate reader. The experimental result was represented by the enzyme reaction's degree of completion. All the tests were repeated three independent times.
NIH-3T3 cells were obtained from the National Collection of Authenticated Cell Cultures. HUVECs were obtained from Procell. All cells were maintained in DMEM media at 37°C with 5% CO₂. […] Cell viability was evaluated by the CCK-8 assay (Dojindo) at 1-, 3-, 5-, and 7-days post-treatment. […] The absorbance at 450 nm was recorded using a microplate reader […]

For a further test, the target named is T1, Proteinase K (Parengyodontium album, UniProt P06873).
T1 construct: purchased Sigma-Aldrich
Nature of the test: Fluorescence anisotropy binding, non-target protease. The following applies: Figure S3A. The text has this:
Figure S3. The fluorescent anisotropy evaluation of binding affinity between DPMD peptide with Proteinase K (A), and inhibitor-saturated and blocked trypsin (B) and chymotrypsin (C). Trypsin/Chymotrypsin was saturated and blocked by aprotinin (Yeasen Biotechnology, trypsin/chymotrypsin inhibitor). (D-H) The fluorescent anisotropy evaluation of binding affinity between DPMD peptide with elastase (D), lipase (E), amylase(F), carboxypeptidase (G), albumin (H) and immunoglobulins (I).
Figure S4. The DLS analysis of trypsin, chymotrypsin and DPMD with/without trypsin or chymotrypsin. […]
data acquisition. A series of enzyme solutions with varying concentrations (maximum concentrations of trypsin and chymotrypsin were 20 μM each) were prepared in Tris-HCl buffer (10 mM Tris, 150 mM NaCl, 1 mM EDTA, pH 7.0). These enzyme solutions were added to the 96-well plate and incubated with 100 nM DPMD at room temperature for 30 minutes, with triplicates.
Fluorescence polarization was measured with an excitation wavelength of 470 nm and an emission […]
Plot the fluorescence intensity versus concentration data as scatter plots using Origin software.
For data analysis, fit the concentration-fluorescence polarization data with the logistic function in Origin 2021 software to obtain the fitting curve and determine the half-maximal effective concentration (EC50). […]
On the technique in general: Polarisation of emitted light reports the rotation of a fluorescent probe.

A further test has as its target T2, elastase (Sus scrofa, UniProt P00772).
T2 construct: purchased Sangon
In words: Fluorescence anisotropy specificity test. It is filed as binding. The following applies: fluorescently labeled DPMD; Figure S3D. Here is the method:
(§2) To validate the design, DPMD was synthesized using solid‐phase synthesis employing HOBt/HBTU and Fmoc chemistry, following a sequence schematic diagram depicted in Figure 1A. Subsequently, a single reverse column purification by High‐performance liquid chromatography (HPLC) yielded DPMD with purity exceeding 95% at a yield surpassing 60% (Figure S1B, Supporting Information). Circular dichroism (CD) spectra were recorded for a 40 µM DPMD sample in an aqueous solution containing 20% TFE at room temperature. The use of 20% TFE was necessary to obtain a clear spectrum, as it enhances peptide solubility and stabilizes secondary structure.^[ [9] ^] […] To further confirm that DPMD's enzymatic targeting is specific and not a broad‐spectrum protein aggregation effect, we tested DPMD against other pancreatic enzymes and abundant plasma proteins. Fluorescently labeled DPMD was mixed with elastase, pancreatic lipase, α‐amylase, carboxypeptidase A, bovine serum albumin (BSA), and IgG, respectively, and fluorescence anisotropy was measured to detect binding. […] For example, anisotropy values for DPMD + elastase (or lipase, amylase, etc.) remained near the baseline (DPMD‐alone) level, whereas DPMD + trypsin produced a pronounced anisotropy elevation (reflecting peptide‐enzyme complex formation and microaggregate assembly).
(§3) Figure S3. […]
(§4) (D-H) The fluorescent anisotropy
(§5) evaluation of binding affinity between DPMD peptide with elastase (D), lipase (E), amylase(F), carboxypeptidase
(§6) (G), albumin (H) and immunoglobulins (I). […]

Test [1] deals with T3, bovine serum albumin (BSA) (Bos taurus, UniProt P02769).
T3 construct: purchased Psaitong Biotechnology
Nature of the test: Fluorescence anisotropy specificity test. Conditions: fluorescently labeled DPMD; Figure S3H. Type of test: binding. Here is the method:
as §2, §3, §4, §5, §6

A further test concerns Trypsin. In words: Trypsin activity assay (BAEE). Type of test: biochemical. The following applies: Figure 2C. Here is the method: Then, cells were co-incubated with Cy5-labeled proteins (trypsinCy5 and chymotrypsinCy5) and DPMD treated proteins Cy5 for 30 min. Subsequently, cells were washed thrice with PBS, fixed with 4% paraformaldehyde, and the nucleus was dyed with DAPI. Observations were performed using a confocal microscope (Olympus, FV3000). This experiment was repeated three independent times. The mean fluorescence intensity was measured using Image J software. The fluorescence values were calculated after background subtraction (fluorescence intensity of regions without cells).
3.8 Measurements of ThT fluorescence
The 0.5% (w/v) aqueous peptide solutions, enzyme solutions, and peptide-enzyme mixtures were supplemented with thioflavin T (ThT, 100 μM, Aladdin). ThT Fluorescence assay was measured on a Steady-state and lifetime Fluorescence Spectrometer (FLS1000). […]
as §1
During the chymotrypsin activity assay, DPMD was incorporated into chymotrypsin. […] The reaction was carried out at 25 ℃, and the product's absorbance at 256 nm was dynamically and real-time monitored using a microplate reader. […]
NIH-3T3 cells were obtained from the National Collection of Authenticated Cell Cultures. […] Cell viability was evaluated by the CCK-8 assay (Dojindo) at 1-, 3-, 5-, and 7-days post-treatment. […]

SMILES strings stand for the structures. Non-standard residues stand in square brackets, D forms with d. Residues, ends and D or L forms follow the SMILES beside them.

T2 sequence (P00772 27-266): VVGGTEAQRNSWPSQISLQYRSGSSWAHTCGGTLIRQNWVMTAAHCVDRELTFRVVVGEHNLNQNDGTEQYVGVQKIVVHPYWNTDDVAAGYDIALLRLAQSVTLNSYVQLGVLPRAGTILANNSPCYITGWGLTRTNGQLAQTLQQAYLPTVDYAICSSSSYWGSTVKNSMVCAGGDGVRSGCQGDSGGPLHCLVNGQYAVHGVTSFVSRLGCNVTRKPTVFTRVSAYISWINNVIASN
T1 sequence (P06873 106-384): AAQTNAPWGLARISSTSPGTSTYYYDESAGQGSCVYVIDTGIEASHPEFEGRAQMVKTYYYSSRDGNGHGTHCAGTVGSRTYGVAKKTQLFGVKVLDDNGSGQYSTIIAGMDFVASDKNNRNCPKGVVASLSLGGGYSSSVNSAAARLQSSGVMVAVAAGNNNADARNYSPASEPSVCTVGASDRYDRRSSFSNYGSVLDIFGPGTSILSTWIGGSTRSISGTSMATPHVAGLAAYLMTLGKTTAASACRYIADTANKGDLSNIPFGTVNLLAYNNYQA
T3 sequence (P02769 25-607): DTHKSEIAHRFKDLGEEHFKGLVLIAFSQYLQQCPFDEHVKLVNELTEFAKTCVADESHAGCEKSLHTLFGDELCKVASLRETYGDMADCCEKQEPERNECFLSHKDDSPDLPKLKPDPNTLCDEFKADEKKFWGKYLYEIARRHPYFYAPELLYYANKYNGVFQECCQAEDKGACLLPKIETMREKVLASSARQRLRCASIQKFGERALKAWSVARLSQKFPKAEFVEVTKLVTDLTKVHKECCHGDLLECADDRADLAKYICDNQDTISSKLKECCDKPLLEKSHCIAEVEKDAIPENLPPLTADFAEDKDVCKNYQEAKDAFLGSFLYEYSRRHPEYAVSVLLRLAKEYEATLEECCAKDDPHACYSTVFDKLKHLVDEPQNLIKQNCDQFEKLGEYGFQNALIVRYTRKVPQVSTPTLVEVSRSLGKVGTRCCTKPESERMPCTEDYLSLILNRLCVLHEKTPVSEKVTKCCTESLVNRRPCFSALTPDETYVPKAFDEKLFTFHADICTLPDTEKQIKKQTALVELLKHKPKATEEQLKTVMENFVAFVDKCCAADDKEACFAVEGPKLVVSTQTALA

For the molecule `CC[C@@H](C)[C@@H](NC(=O)[C@@H](CCC(N)=O)NC(=O)[C@H](NC(=O)[C@@H](Cc1ccc(O)cc1)NC(=O)CNC(=O)[C@@H](CC(C)C)NC(=O)[C@H](NC(=O)[C@@H](CO)NC(=O)CNC(=O)[C@@H](C)NC(=O)[C@@H](CC(=O)O)NC(=O)[C@@H](C)NC(=O)[C@@H](CCCNC(=N)N)NC(=O)[C@@H](C)NC(=O)[C@@H](CC(=O)O)NC(=O)[C@@H](C)NC(=O)[C@@H](CCCNC(=N)N)NC(=O)[C@@H](C)NC(=O)[C@@H](CC(=O)O)NC(=O)[C@@H](C)NC(=O)[C@@H](CCCNC(=N)N)NC(=O)[C@@H](C)NC(=O)[C@@H](CC(=O)O)NC(=O)[C@@H](C)NC(=O)[C@H](N)CCCNC(=N)N)C(C)C)[C@H](C)CC)C(=O)N[C@H](CCCNC(=N)N)C(=O)O` [DPMD, Ac‐(D‐RADA)4‐CONH2] (H-[dR][dA][dD][dA][dR][dA][dD][dA][dR][dA][dD][dA][dR][dA][dD][dA]G[dS][dV][dL]G[dY][dI][dQ][dI][dR]-OH; N-terminus and C-terminus assumed), the “suppression of enzymatic activity of Chymotrypsin” value with Chymotrypsin is “almost complete extent”. The “binding to Proteinase K (fluorescence anisotropy)” value on Proteinase K is listed as “no appreciable binding”. For the same molecule, the “anisotropy increase with elastase” value on elastase was “no significant anisotropy increase”. Further, the “anisotropy increase with BSA” value in test [1] is “no significant anisotropy increase”. Besides, the “suppression of enzymatic activity of Trypsin” value with Trypsin is listed as “almost complete extent”.

Values taken from PMC12520456, “Regulating Enzyme Activity via Microaggregates Mediated by Phase Separation” (Advanced Science, 2025).
